Molecules are shown by their SMILES.

The first assay addresses T1, Parkin ligase (Homo sapiens, UniProt O60260).
T1 sequence (O60260 1-465): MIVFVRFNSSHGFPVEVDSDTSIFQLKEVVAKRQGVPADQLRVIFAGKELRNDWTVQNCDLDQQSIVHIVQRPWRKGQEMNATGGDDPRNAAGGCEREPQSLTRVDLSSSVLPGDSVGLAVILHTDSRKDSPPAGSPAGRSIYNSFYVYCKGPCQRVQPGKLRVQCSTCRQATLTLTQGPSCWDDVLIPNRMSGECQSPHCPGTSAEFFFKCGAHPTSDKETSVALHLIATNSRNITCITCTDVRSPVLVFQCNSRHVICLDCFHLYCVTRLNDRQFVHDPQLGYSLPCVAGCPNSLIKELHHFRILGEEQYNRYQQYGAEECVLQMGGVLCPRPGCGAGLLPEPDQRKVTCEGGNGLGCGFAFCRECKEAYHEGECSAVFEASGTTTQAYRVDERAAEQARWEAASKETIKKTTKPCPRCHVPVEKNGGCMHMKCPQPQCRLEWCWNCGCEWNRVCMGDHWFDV
The assay can be described thus: Activity-Based Probe Assay using an Ubiquitin vinyl sulfone probe (TR-FRET).
Conditions: not given
Type of assay: biochemical. How it is done: An Ubiquitin vinyl sulfone probe can be used that irreversibly binds to the active site cysteine of Parkin ligase. Covalent attachment of the probe to the Parkin can be monitored by TR-FRET. Candidate activator compounds can be identified by increasing the activity of Parkin ligase due to an increase in TR-FRET signal. Screening for activating compounds can be distinguished from the controls as follows: • 100% activation signal=Heat activated Parkin+100 nM control activator in DMSO. • 0% activation signal=Heat activated Parkin+DMSO only. • Parkin activators can be identified by an increase of the 0% activation signal TR-FRET signal.
• Assay Plate: White 384 well plate (Corning 3572) • Enzyme: Parkin-His tagged 203 μM (10.5 mg/ml) • Probe: Ubiquitin vinyl-sulfone (HA-Ub-VS Boston Biochem U-212) • DMSO: DMSO (Sigma cat # D4540-100ML) • Reaction Buffer: 50 mM HEPES (pH 8.5), 150 mM NaCl, 0.01% Tween 20, 0.1% BSA • Detection Buffer: 50 mM HEPES (pH 8.5), 150 mM NaCl, 0.01% Tween 20, 0.1% BSA, 800 mM KF • Detection Reagent A: 2.6 nM Anti-6HIS-Eu cryptate and 40 nM Anti-HA-XL665 in detection buffer • Eu cryptate: Anti-6HIS-Eu cryptate (CisBio 61HISKLA) • XL665: Anti-HA-XL665 (CisBio 610HAXLA) Enzyme Reaction (15 min pre incubation Parkin with activator only) • Parkin: 40 nM • HA-Ub-VS Probe: 70 nM • Activator/DMSO: 2× Activator/2% DMSO • Reaction time: 60 minutes • Temperature: 22° C. • Total volume: 10 μl reaction Detection Reaction • Take 10 μl of Enzyme Reaction above and add 10 μl detection Reagent A under the following conditions: • Reaction time: 60 minutes • Temperature: 22° C. • Total volume: 20 μl
Assay procedure (Using HP D-300 compound dispenser and Bravo for the operation): • 1) Heat activate Parkin in reaction buffer (500 μl/1.5 ml tube: Eppendorf Thermomixer 5 minutes, 400 rpm at 58° C. and put on ice until needed). • 2) Load assay plate wells with 4.8 μl 84.5 nM Parkin in reaction buffer by use of Bravo. • 3) Deliver 0.2 μl 200× activator candidates in DMSO by use of HP D-300 compound dispenser. Highest 200× concentration=[…] and then twofold dilutions. • 4) Spin 1000 rpm, 2 minutes, at room temp. • 5) Incubate plate for 15 minutes at room temp. • 6) Add 5 μl 140 nM HA-Ub-VS Probe in reaction buffer by use of Bravo. • 7) Spin 1000 rpm, 2 minutes, at room temp. • 8) Incubate plate for 60 minutes at room temp. • 9) Add 10 μl 2.6 nM Anti-6HIS-Eu cryptate and 40 nM Anti-HA-XL665 in detection buffer. • 10) Spin 1000 rpm, 2 minutes, at room temp. • 11) Incubate plate for 60 minutes at room temp. • 12) Read plates on Perkin Elmer Envision instrument with the following parameters: • LANCE dual laser protocol loaded into the Envision® software • Top Mirror: LANCE/DELFIA Duel/Bias (Bar code 446) • Emission Filter: APC 665 EM (Bar code 205) • 2nd Emission Filter: Europium 615 EM (Bar code 203) • Read 655 nm (channel 1) and 615 nm (channel 2) wavelengths on Envision®
Data Analysis: The Data can be read in CSV files. There are two tables in those CSV files, which are the values of 655 nm (channel 1) and 615 nm (channel 2) wavelengths respectively. The data is converted to an HTRF Ratio=(Channel 1/Channel 2)*10,000
The average of all the 0 uM controls (DMSO only)=BKGD (Background—0% activation). Subtract BKGD from each HTRF Ratio value=HTRF-BKGD. The average of all the […] 100 nM control activator in DMSO controls=Max (100% activation). The following equation is then used to calculate % Activation for each well/candidate as follows: % Activation=(HTRF-BKGD/Max)*100.
Graphpad Prisim was used with Transform X values: X=Log(X) and nonlinear regression (dose-response-stimulation): Log(agonist) vs Response—variable slope (four parameters) with constrains set to Bottom=0 and Top=100.
The Activity-Based Probe Assay was performed with various compounds in Tables 1-3.
In general terms: TR-FRET usually uses a lanthanide donor and a delayed reading to cut background.
Take `O=C(/C=C/c1ccccc1)Nc1nc(NC(=O)c2ccccc2)nn1-c1ccccc1` [Compound C, N-(5-cinnamamido-1-phenyl-1H-1,2,4-triazol-3-yl)benzamide]: the “Parkin Ligase reaction with the Activity-based Ubiquitin vinyl sulfone probe” value is listed as “increases”.

The same assay, now with this note: Parkin activation, HA-Ub-VS probe, heat activated Parkin; read-out: Probe Assay EC50 (μM) [Example 2].
By EC50 is commonly meant the concentration at which the effect is half-maximal. Regarding `COc1ccc(-n2nc(NC(=O)c3ccccc3)nc2NC(=O)c2ccccc2)cc1` [Compound F2], the EC50 came to 12 µM. On the same count and under the same terms, under `Cc1ccccc1C(=O)Nc1nc(NC(=O)c2ccccc2C)n(-c2ccc(Cl)cc2)n1` [Compound Q3] stands 4 µM.

Turning to `Cc1ccccc1C(=O)Nc1nc(C2CCOCC2)nn1-c1ccccc1` [Compound V2], the concentration giving a half-maximal response (EC50) was above 100 µM. For the compound `Cc1ccccc1C(=O)Nc1nc(Nc2ncnc3ccccc23)n(-c2ccccc2)n1` [Compound R2], the EC50 was 4 µM. Still for that read-out and setting: under `CN1CCC(C(=O)Nc2nc(Nc3ncnc4ccccc34)n(-c3ccccc3)n2)CC1` [Compound D1] stands 38.9 µM; under `O=C(Nc1nc(NC(=O)c2ccc3ccccc3n2)n(-c2ccccc2)n1)c1ccccc1` [Compound B2], 4 µM; under `Cc1ccccc1C(=O)Nc1nc(NC(=O)c2ccccc2C)n(-c2ccccc2)n1` [Compound F, 2-methyl-N-[5-[(2-methylbenzoyl)amino]-1-phenyl-1,2,4-triazol-3-yl]benzamide], 6.7 µM. Same read-out and setting: under `Cc1ccccc1C(=O)Nc1nc(-c2ccccn2)nn1-c1ccccc1` [Compound Q2] stands 26 µM; under `O=C(Nc1nc(NC(=O)c2cc3ccccc3s2)n(-c2ccccc2)n1)c1ccccc1` [Compound A2], 50 µM. The same measure, in the same setting: under `Cc1ccccc1C(=O)Nc1nc(NC(=O)/C=C/c2ccccc2)n(-c2ccccc2)n1` [Compound C2] stands 4 µM; under `CN(C(=O)c1ccccc1)c1nc(N(C)C(=O)c2ccccc2)n(-c2ccccc2)n1` [J], above 100 µM. On to `Cc1ccccc1C(=O)Nc1nc(NC(=O)c2ccccc2C)n(-c2ccccn2)n1` [Compound X2], for which the EC50 was above 100 µM. Still for that read-out and setting: the value for `O=C(Nc1nc(Nc2ncnc3ccccc23)nn1-c1ccccc1)c1ccccc1` [I] was above 100 µM; that for `O=C(Nc1nc(Nc2ccnc3ccccc23)n(-c2ccccc2)n1)c1ccccc1` [Compound I1] was above 100 µM. Still for that read-out and setting: the value for `O=C(Nc1nc(Nc2ncnc3ccccc23)n(-c2ccccc2)n1)c1ccccc1` [Compound L, N-[1-phenyl-5-(quinazolin-4-ylamino)-1,2,4-triazol-3-yl]benzamide] was 1.8 µM.

As to `Cc1ccc(-c2nc(NC(=O)c3ccccc3C)n(-c3ccccc3)n2)nc1` [Compound R3, 2-methyl-N-(3-(5-methylpyridin-2-yl)-1-phenyl-1H-1,2,4-triazol-5-yl)benzamide], the EC50 was 3 µM. Same read-out and setting: under `Cc1ccccc1C(=O)Nc1nc(-c2ccncc2)nn1-c1ccccc1` [Compound S2] stands above 100 µM; under `Nc1nc(Nc2nc(NC(=O)c3ccccc3)nn2-c2ccccc2)c2ccccc2n1` [Compound J1], above 100 µM; under `O=C(Nc1nc(NC(=O)c2ccccc2)n(-c2ccc3ncccc3c2)n1)c1ccccc1` [Compound J2], 6 µM. Same read-out and setting: the value for `O=C(/C=C/c1ccccc1)Nc1nc(NC(=O)c2ccccc2)nn1-c1ccccc1` [Compound C, N-(5-cinnamamido-1-phenyl-1H-1,2,4-triazol-3-yl)benzamide] was 15.1 µM. Same read-out and setting: under `O=C(Nc1nc(NC(=O)c2ccccc2)n(C2CCOCC2)n1)c1ccccc1` [Compound I2] stands above 100 µM.

The values are drawn from patent publication US10308617B2, “Triazole benzamide derivatives and the compositions and methods of treatment regarding the same” (An2H Discovery Limited, priority 2016, dated 2019).
